Assay results as given in ChEMBL document CHEMBL1909046, “DrugMatrix in vitro pharmacology data”.

How the values were obtained:
[1] = biological target: T1, 3-hydroxy-3-methylglutaryl-coenzyme A reductase (Homo sapiens, UniProt P04035); set-up: species or system Escherichia coli;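 also: enzyme inhibition assay of HMG-CoA reductase using radiolabeled [14C]HMG-CoA as substrate; in other assays of this panel Not Active means under 50% inhibition at 10 µM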
T1 sequence (P04035 whole entry): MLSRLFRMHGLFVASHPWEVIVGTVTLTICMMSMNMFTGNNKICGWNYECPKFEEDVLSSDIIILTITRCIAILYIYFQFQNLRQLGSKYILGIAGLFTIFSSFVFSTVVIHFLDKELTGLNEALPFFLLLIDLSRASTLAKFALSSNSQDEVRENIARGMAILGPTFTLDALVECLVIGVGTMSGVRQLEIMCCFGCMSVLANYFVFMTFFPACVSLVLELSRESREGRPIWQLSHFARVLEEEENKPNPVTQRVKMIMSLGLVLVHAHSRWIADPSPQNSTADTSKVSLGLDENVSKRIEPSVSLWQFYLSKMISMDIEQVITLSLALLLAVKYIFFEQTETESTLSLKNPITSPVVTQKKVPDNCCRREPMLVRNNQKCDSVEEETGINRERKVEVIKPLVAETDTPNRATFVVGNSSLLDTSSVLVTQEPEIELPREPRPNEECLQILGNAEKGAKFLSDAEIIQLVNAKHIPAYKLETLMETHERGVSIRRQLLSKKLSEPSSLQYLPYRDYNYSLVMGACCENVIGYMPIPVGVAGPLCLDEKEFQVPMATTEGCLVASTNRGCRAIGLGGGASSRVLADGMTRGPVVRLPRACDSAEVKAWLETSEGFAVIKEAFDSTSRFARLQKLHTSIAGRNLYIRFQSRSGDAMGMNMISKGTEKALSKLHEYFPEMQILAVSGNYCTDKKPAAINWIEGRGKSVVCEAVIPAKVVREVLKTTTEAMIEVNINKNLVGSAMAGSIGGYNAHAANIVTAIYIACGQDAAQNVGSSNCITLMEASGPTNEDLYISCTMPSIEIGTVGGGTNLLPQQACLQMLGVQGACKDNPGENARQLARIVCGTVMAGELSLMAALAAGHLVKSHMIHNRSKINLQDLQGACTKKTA

[2] = biological target: Cannabinoid receptor 1 (Homo sapiens, UniProt P21554); assay type: cell membranes, Membrane; settings: chem-1; also: in other assays of this panel Not Active means under 50% inhibition at 10 µM
Chain of Cannabinoid receptor 1 (P21554 whole entry): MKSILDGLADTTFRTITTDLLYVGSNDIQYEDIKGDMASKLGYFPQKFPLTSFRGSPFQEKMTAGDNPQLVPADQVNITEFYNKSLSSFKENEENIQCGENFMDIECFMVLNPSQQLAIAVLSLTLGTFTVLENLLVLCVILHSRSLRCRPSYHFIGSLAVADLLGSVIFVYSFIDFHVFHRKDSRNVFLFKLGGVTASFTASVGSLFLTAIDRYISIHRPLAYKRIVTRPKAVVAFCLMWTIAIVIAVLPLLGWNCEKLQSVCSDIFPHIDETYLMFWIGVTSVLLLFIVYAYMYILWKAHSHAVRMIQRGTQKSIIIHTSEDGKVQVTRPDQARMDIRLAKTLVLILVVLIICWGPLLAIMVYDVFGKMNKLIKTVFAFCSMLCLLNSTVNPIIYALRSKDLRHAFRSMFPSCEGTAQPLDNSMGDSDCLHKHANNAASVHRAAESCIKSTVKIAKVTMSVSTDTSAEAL

[3] = biological target: T2, Adenosine receptor A1 (Homo sapiens, UniProt P30542); assay type: cell membranes, CHO, Membrane; settings: cho;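 also: radioligand binding assay at the adenosine A1 receptor, with DPCPX serving as the labelled ligand; in other assays of this panel Not Active means under 50% inhibition at 10 µM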
T2 sequence (P30542 whole entry): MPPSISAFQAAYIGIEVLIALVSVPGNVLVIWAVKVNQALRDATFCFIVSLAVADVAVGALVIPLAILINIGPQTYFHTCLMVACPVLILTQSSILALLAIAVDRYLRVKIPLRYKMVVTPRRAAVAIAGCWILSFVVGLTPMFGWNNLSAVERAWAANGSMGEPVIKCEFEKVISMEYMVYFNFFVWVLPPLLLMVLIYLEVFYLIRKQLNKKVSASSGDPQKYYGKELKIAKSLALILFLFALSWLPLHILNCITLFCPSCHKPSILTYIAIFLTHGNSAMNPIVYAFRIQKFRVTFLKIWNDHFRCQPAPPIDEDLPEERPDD

[4] = biological target: T3, 5-hydroxytryptamine receptor 2C (Homo sapiens, UniProt P28335); experiment: DRUGMATRIX: Serotonin (5-Hydroxytryptamine) 5-HT2C radioligand binding (ligand: [3H] Mesulergine); assay type: cell membranes, CHO-K1, Membrane; settings: Not Active = under 50% inhibition at 10 µM
T3 sequence (P28335 whole entry): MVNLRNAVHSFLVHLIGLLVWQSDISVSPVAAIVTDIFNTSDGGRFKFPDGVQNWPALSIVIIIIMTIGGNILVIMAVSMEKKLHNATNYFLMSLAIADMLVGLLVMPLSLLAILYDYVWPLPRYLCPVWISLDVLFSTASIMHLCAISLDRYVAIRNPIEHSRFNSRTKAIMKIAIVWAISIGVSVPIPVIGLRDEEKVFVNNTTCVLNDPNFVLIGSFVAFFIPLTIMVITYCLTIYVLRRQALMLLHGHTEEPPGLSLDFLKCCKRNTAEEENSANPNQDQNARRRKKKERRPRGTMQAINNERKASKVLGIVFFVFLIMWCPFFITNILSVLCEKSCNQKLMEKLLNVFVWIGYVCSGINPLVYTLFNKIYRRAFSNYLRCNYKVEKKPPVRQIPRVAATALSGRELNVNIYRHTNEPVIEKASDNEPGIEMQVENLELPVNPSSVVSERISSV

[5] = biological target: Tyrosine-protein kinase Lck (Homo sapiens, UniProt P06239); experiment: DRUGMATRIX: Protein Tyrosine Kinase, LCK enzyme inhibition (substrate: Poly(Glu:Tyr)); assay type: cell-based, Insect cells; settings: Not Active = under 50% inhibition at 10 µM
Chain of Tyrosine-protein kinase Lck (P06239 whole entry): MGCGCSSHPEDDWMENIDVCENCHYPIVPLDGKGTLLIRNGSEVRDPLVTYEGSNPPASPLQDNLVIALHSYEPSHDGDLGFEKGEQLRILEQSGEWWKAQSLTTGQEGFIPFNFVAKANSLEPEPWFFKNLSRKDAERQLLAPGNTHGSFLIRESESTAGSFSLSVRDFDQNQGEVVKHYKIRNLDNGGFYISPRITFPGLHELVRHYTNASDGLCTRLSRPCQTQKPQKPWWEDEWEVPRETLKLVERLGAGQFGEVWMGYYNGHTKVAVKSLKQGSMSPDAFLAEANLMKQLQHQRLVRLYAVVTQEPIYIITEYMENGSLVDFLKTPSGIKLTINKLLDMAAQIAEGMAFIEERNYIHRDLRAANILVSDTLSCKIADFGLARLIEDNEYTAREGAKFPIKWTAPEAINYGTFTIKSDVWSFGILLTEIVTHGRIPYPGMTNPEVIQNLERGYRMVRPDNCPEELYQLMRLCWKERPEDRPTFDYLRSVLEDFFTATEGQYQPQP

[6] = DRUGMATRIX: Nicotinic Acetylcholine radioligand binding (ligand: [125I] Epibatidine); assay type: cell membranes, Membrane; settings: imr-32; Not Active = under 50% inhibition at 10 µM
[7] = biological target: Substance-P receptor (Homo sapiens, UniProt P25103); assay type: cell membranes, Membrane; settings: cho; also: in other assays of this panel Not Active means under 50% inhibition at 10 µM
Chain of Substance-P receptor (P25103 whole entry): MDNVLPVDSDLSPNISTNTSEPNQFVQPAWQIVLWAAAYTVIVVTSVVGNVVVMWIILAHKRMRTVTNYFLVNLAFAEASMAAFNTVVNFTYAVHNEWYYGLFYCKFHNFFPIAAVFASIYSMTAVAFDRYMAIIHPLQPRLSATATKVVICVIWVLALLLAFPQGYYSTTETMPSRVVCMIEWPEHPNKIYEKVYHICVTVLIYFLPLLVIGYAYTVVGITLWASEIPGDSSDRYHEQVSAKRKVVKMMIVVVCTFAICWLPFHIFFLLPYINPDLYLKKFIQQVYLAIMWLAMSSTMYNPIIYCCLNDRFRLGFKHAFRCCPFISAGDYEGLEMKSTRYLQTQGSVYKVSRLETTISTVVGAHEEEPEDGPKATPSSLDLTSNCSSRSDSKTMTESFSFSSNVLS

Row | Compound | IC50 [1] | IC50 [2] | IC50 [3] | IC50 ([4]; cho-k1) | IC50 ([5]; insect cells) | IC50 [6] | Ki [6] | IC50 [7] | IC50 ([4]; read-out: IC50) | Ki ([4]; read-out: Ki) | IC50 ([5]; read-out: IC50) | Ki [1] | Ki [2] | Ki [3] | Ki ([4]; cho-k1) | Ki ([5]; insect cells) | Ki [7]
1 | C[C@]12CC[C@H]3[C@@H](CCC4=CC(=O)CC[C@@]43C)[C@@H]1CC[C@@H]2O [TESTOSTERONE] | Not Active | Not Active | Not Active | Not Active | Not Active | Not Active | Not Active | Not Active | – | – | – | – | – | – | – | – | –
2 | CC(C)(C)NC[C@H](O)COc1nsnc1N1CCOCC1 [TIMOLOL] | Not Active | Not Active | Not Active | Not Active | Not Active | Not Active | Not Active | Not Active | – | – | – | – | – | – | – | – | –
3 | CCS(=O)(=O)CCn1c([N+](=O)[O-])cnc1C [TINIDAZOLE] | Not Active | Not Active | Not Active | Not Active | Not Active | Not Active | Not Active | Not Active | – | – | – | – | – | – | – | – | –
4 | C[C@@H]1C[C@H]2[C@@H]3CCC4=CC(=O)C=C[C@]4(C)C3=CC[C@]2(C)[C@H]1C(=O)CN1CCN(c2cc(N3CCCC3)nc(N3CCCC3)n2)CC1 [TIRILAZAD] | Not Active | Not Active | Not Active | – | – | Not Active | Not Active | Not Active | 718 nM | 376 nM | 15.8 µM | – | – | – | – | – | –
5 | NC[C@H]1O[C@H](O[C@H]2[C@H](O)[C@@H](O[C@H]3O[C@H](CO)[C@@H](O)[C@H](N)[C@H]3O)[C@H](N)C[C@@H]2N)[C@H](N)C[C@@H]1O [TOBRAMYCIN] | Not Active | Not Active | Not Active | Not Active | Not Active | Not Active | Not Active | Not Active | – | – | – | – | – | – | – | – | –
6 | O=C(O)C(Cl)(Cl)Cl [TRICHLOROACETIC ACID] | Not Active | Not Active | Not Active | Not Active | Not Active | Not Active | Not Active | Not Active | – | – | – | – | – | – | – | – | –
7 | COc1ccc(CN2CCNCC2)c(OC)c1OC [TRIMETAZIDINE] | Not Active | Not Active | Not Active | Not Active | Not Active | Not Active | Not Active | Not Active | – | – | – | – | – | – | – | – | –
8 | CC(=O)O[C@H]1C[C@@H]2CC[C@@H]3[C@H](CC[C@@]4(C)[C@H]3C[C@H]([N+]3(C)CCCCC3)[C@@H]4OC(C)=O)[C@@]2(C)C[C@@H]1N1CCCCC1.[Br-] [VECURONIUM BROMIDE] | Not Active | Not Active | Not Active | Not Active | Not Active | Not Active | Not Active | Not Active | – | – | – | – | – | – | – | – | –
9 | COc1cc(C(=O)NS(=O)(=O)c2ccccc2C)ccc1Cc1cn(C)c2ccc(NC(=O)OC3CCCC3)cc12 [ZAFIRLUKAST] | Not Active | Not Active | Not Active | Not Active | Not Active | Not Active | Not Active | Not Active | – | – | – | – | – | – | – | – | –
10 | Cc1cn([C@H]2C[C@H](N=[N+]=[N-])[C@@H](CO)O2)c(=O)[nH]c1=O [ZIDOVUDINE] | Not Active | Not Active | Not Active | Not Active | Not Active | Not Active | Not Active | Not Active | – | – | – | – | – | – | – | – | –
11 | STANNOUS FLUORIDE | Not Active | Not Active | Not Active | Not Active | Not Active | Not Active | Not Active | Not Active | – | – | – | Not Active | Not Active | Not Active | Not Active | Not Active | Not Active
12 | THIMEROSAL | Not Active | Not Active | Not Active | Not Active | Not Active | Not Active | Not Active | Not Active | – | – | – | Not Active | Not Active | Not Active | Not Active | Not Active | Not Active
